“Also recorded” adds a separate entry of the source. Like-named read-outs stand apart in the source and are kept apart here.
How the values were obtained:
[1] = system: vacuolated pyramidal neurons of posterior cingulate and retrosplenial (PC/RS) cortices, MK-801 neurotoxicity; assay: Blocking MK-801 neurotoxicity (vacuolated PC/RS cortical neurons) in rats by serotonergic agents; type: in vivo, adult female rats; settings: for ED50: Rattus norvegicus, Pyramidal neuron, read-out: ED50 in blocking MK-801 neurotoxicity, rats
Procedure: Each test rat also received a 5HT-2A/2C agonist drug (LSD, DOB, DOI, or DOM), while control rats received an inert carrier liquid as a placebo. After 4 hours, the rats were sacrificed, and brain tissue from specific regions which are susceptible to NR/hypo damage (layers III and IV of the posterior cingulate (PC) and retrosplenial (RS) cortices) were examined for vacuoles in the neurons, which are an indicator of toxic neuronal injury induced by NMDA receptor hypofunction.
DOI was purchased from Research Biochemicals International (Natick, Mass.).
(§1) For each test agent, at least 20 rats were used, and at least four dosages were tested.
(§2) The rats were sacrificed four hours after drug administration, and brain tissue from the PC/RS region was histopathologically evaluated by previously described methods using double-blinded techniques (Olney et al 1991). The number of vacuolated PC and RS neurons were counted on each side of the brain at a rostrocaudal level immediately posterior to where the corpus callosum ceases decussating across the midline (approximately 5.6 mm caudal to Bregma; Paxinos & Watson, The Rat Brain in Stereotaxic Coordinates, 2d Ed., 1986).
This drug is widely used in Europe, and is a 5HT-2A agonist but a 5HT-2C antagonist.
It is described in Nozulak et al 1993.

5HT-2A receptors = settings: Burris et al 1991 or other literature; cited from earlier work
5HT2C receptors = settings: Burris et al 1991 or other literature; cited from earlier work
craving for cocaine = settings: Sershen 1994; cited from earlier work
[2] = system: NR/hypo-induced vacuoles in PC/RS cortical neurons (MK-801); assay: Anti-psychotic drugs and sigma blockers: protection against NR/hypo-induced vacuoles; type: in vivo, rats; settings: for ED50: Rattus norvegicus, Cortical neurone, read-out: ED50 in protecting against NR/hypo-induced vacuoles; for ED50 / activity in protecting against NR/hypo-induced vacuoles (words): ip; for effect on vacuole formation / activity in protecting against NR/hypo-induced vacuoles (words): rats, MK-801; for activity in protecting against NR/hypo-induced vacuoles (words): sulpiride given only 15 minutes prior to MK-801
Procedure: Several of the antipsychotic agents tested (haloperidol, thioridazine and loxapine) are known to interact with both dopamine receptors and sigma receptors.
Control animals received saline or DMSO, but no anti-psychotic drugs. Test animals were injected ip with an antipsychotic drug, listed above and in Table 2. Vacuoles were counted and data were processed as described in Example 1.

schizophrenia = settings: cited from earlier work
5HT-2A/2C receptor = assay: 5HT-2A/2C antagonist block of agonist protection against MK-801 neurotoxicity; type: in vivo, adult female rats
Excerpt: The following example confirms that the neuroprotective effects provided by 5HT-2A/2C agonists are mediated through either the 5HT-2A or 5HT-2C receptor (or both), rather than through cross-reactivity at some other receptor or through some other mechanism. This was done by showing that these neuroprotective effects are blocked by selective 5HT-2A/2C antagonists.
Ritanserin is an antagonist drug that selectively blocks activation of 5HT-2A/2C receptors.
The brains were processed and the severity of damage was assessed as described in Example 1. Results were analyzed by analysis of covariance (ANCOVA) where the dose of DOI was the covariate and the presence of ritanserin served as the classification (treatment) variable. The homogeneity of slopes assumption was tested by determining whether there was a significant interaction between the covariate and the treatment variable.

[3] = system: NMDA antagonist toxic side effects; assay: Safener drugs against NMDA antagonist toxic side effects (earlier findings); type: in vivo; settings: Applicants' discovery, no data given
cerebrocortical neurons = settings: cited from earlier work
humans = settings: cited from earlier work; for psychotomimetic reactions / psychosis in humans: NMDA antagonists
[4] = system: pyramidal neurons in layers III and IV of the posterior cingulate (PC) and retrosplenial (RS) cortices; assay: Neurotoxic reaction to MK-801 in control rats (vacuolated neurons per section); type: in vivo, adult female rats; settings: MK-801 0.5 mg/kg sc plus vehicle; ± SEM; n=26
Procedure: as §1, §2

[5] = system: NMDA receptors in chick embryo retina; assay: Excitotoxicity in chick embryo retina (NMDA with MK-801, LSD or DOI); settings: MK-801 500 nM plus NMDA 40 μM, with or without LSD or DOI 500 nM to 100 μM; n=6 per condition
Procedure: Several tests were performed to ensure that when a 5HT-2A agonist is administered together with an NMDA antagonist, the 5HT-2A agonist will not interfere with the activity of the NMDA antagonist drug at NMDA receptors.
These experiments were performed using segments of chick embryo retina. This is a widely used model for studying the production and prevention of excitotoxic phenomena, since it is simple and inexpensive. Chick tissue is used, since it tends to provide a better model of adult mammalian tissue than embryonic or juvenile mammalian tissue. Unlike newborn mammals, which are usually blind at birth, baby chicks can see quite well as soon as they emerge from the shell, and the NMDA receptors in chick retinal tissue are fully mature and functional.
In these tests, NMDA was introduced into the incubation medium in a concentration (40 μM) sufficient to produce a fully developed excitotoxic lesion within 30 min, displaying acute degeneration and necrosis of the majority of neurons in the inner layers of the retina.

5HT-2C = settings: cited from earlier work
5HT-3 = settings: cited from earlier work
5HT-6 = settings: cited from earlier work
5HT-7 = settings: cited from earlier work
[6] = ip, 4 h, MK-801 0.5 mg/kg sc, test compound ip, dose reducing mean vacuolated neurons to 50% of control, 4 h
[7] = Olney et al 1989, Corso et al 1994, adult rat

CCN(CC)C(=O)[C@@H]1C=C2c3cccc4[nH]cc(c34)C[C@H]2N(C)C1 [LSD, lysergic acid diethylamide]
ED50 [1, 6]: 0.68 mg/kg
ED50 in blocking MK-801 neurotoxicity ([1]; rats, MK-801 0.5 mg/kg sc, test compound ip, dose reducing mean vacuolated neurons to 50% of control, 4 h, 240 min): 0.67 mg/kg
activity at 5HT-2A receptors (5HT-2A receptors): agonizes 5HT-2A and 5HT-2C receptors
activity at 5HT-2C receptors (5HT2C receptors): agonizes 5HT-2A and 5HT-2C receptors

CC[C@H]1C[C@H]2C[C@H]3c4[nH]c5ccc(OC)cc5c4CCN(C2)[C@@H]13 [ibogaine]
suppression of craving for cocaine (craving for cocaine): can suppress the craving for cocaine

Cc1cc2c(s1)Nc1ccccc1N=C2N1CCN(C)CC1 [Olanzapine]
ED50 [2]: 1.4 mg/kg
effect on vacuole formation [2]: shown to reduce vacuole formation

N[C@@H](Cc1c[nH]c2ccccc12)C(=O)O [tryptophan]
effect on symptoms of schizophrenia (schizophrenia; schizophrenic patients): can exacerbate the symptoms and displays of schizophrenia

O=C(CCCN1CCC(O)(c2ccc(Cl)cc2)CC1)c1ccc(F)cc1 [Haloperidol]
ED50 [2]: 5.1 mg/kg

Cc1nc2sccn2c(=O)c1CCN1CCC(=C(c2ccc(F)cc2)c2ccc(F)cc2)CC1 [ritanserin]
effect of antagonist on DOI's protection (5HT-2A/2C receptor; ritanserin 0.03 mg/kg ip plus various doses of DOI, F(1,84)=23.36, p<0.0005): competitively blocks DOI's protective effects against the toxic side effects of MK-801; also recorded: significantly interfered with DOI's protection
shift of the DOI blocking curve by ritanserin (5HT-2A/2C receptor; ritanserin 0.03 mg/kg ip, FIG. 3): shifted the blocking curve to the right
effect on positive symptoms of schizophrenia (schizophrenia; hallucinations, delusions): did not help relieve "positive" symptoms
effect on symptoms of schizophrenia (schizophrenia; schizophrenic patients): only helped relieve certain "negative" symptoms of schizophrenia
effect on exacerbation of schizophrenia by mCPP (schizophrenia; schizophrenic patients, mCPP): can be blocked

C=CCC1(C(C)CCC)C(=O)NC(=O)NC1=O (stereo not shown) [secobarbitol]
prevention of NMDA antagonist toxic side effects [3]: prevent NMDA antagonists from causing toxic side effects

Cc1ccccc1N=C(N)Nc1ccccc1C [Di(2-tolyl)guanidine, di(2-tolyl)guanidine]
ED50 [2]: 22.2 mg/kg

Clc1ccc2c(c1)C(N1CCNCC1)=Nc1ccccc1O2 [Amoxapine]
ED50 [2]: 75 mg/kg

CN1CCN(C2=Nc3cc(F)ccc3Cc3ccccc32)CC1 [Fluperlapine]
ED50 [2]: 2.3 mg/kg
effect on vacuole formation [2]: shown to reduce vacuole formation

CSc1ccc2c(c1)N(CCC1CCCCN1C)c1ccccc1S2 (stereo not shown) [Thioridazine]
ED50 [2]: 55.3 mg/kg

CCNC1(c2cccs2)CCCCC1=O (stereo not shown) [Tiletamine]
pathomorphological changes in brain (cerebrocortical neurons; [7]): cause pathomorphological changes in the cerebral cortex of adult rats

COc1cccc([C@H](O)C2CCN(CCc3ccc(F)cc3)CC2)c1OC [MDL 100,907]
activity at 5HT-2A receptors (5HT-2A receptors): preferentially antagonizes 2A receptors
activity at 5HT-2C receptors (5HT2C receptors): does not substantially affect 2C receptors

CCN(CC)C(=O)N[C@H]1C=C2c3cccc4[nH]cc(c34)C[C@H]2N(C)C1 [Lisuride]
prevention of the neurotoxic action of MK-801 / vacuole formation ([1]; rats, 5HT-2A/2C agonists, ip): can prevent vacuole formation caused by MK-801
hallucinations (humans; in vivo): does not cause hallucinations

C[C@]12N[C@H](Cc3ccccc31)c1ccccc12 [MK-801, (+)-5-methyl-10,11-dihydro-5H-di[a,d]cyclohepten-5,10-imine]
mean number of vacuolated neurons per section [4]: 223±10.5
protection against NMDA excitotoxic damage [5]: completely protected against excitotoxic damage; also recorded: showed no cytopathology

CNC1(c2ccccc2Cl)CCCCC1=O (stereo not shown) [Ketamine]
pathomorphological changes in brain (cerebrocortical neurons; rat, in vivo): cause pathomorphological changes in the cerebral cortex of adult rats
psychotomimetic reactions / psychosis in humans (humans): produces symptoms in normal humans that are indistinguishable from the symptoms of psychosis and thought disorder seen in schizophrenia
duration of action (humans; anesthetic, intravenous): about 15 minutes

CN1CCN(C2=Nc3ccccc3Oc3ccc(Cl)cc32)CC1 [Loxapine]
ED50 [2]: 23.6 mg/kg

CCNC(C)Cc1cccc(C(F)(F)F)c1 (stereo not shown) [fenfluramine]
effect on symptoms of schizophrenia (schizophrenia; schizophrenic patients): can exacerbate the symptoms and displays of schizophrenia

C[C@@H]1CN(CCCn2c3ccccc3c3ccccc32)C[C@H](C)N1 [Rimcazole]
ED50 [2]: 17.8 mg/kg

COc1cc(CC(C)N)c(OC)cc1I (stereo not shown) [DOI, 1-(2,5-dimethoxy-4-iodophenyl)-2-aminopropane]
protection against NMDA antagonist toxicity with SDZ SER-082 added ([1]; DOI n=29, SDZ SER-082 added to block 5HT-2C receptor): found to protect against NMDA antagonist toxicity
ED50 [1, 6]: 1.05 mg/kg
activity at 5HT-2A receptors (5HT-2A receptors): selectively activate 5HT-2A and 5HT-2C receptors with higher affinity than other 5HT receptors
activity at 5HT-2C receptors (5HT2C receptors): selectively activate 5HT-2A and 5HT-2C receptors with higher affinity than other 5HT receptors

CN1CCN(C2=Nc3cc(Cl)ccc3Nc3ccccc32)CC1 [Clozapine]
ED50 [2]: 3.2 mg/kg
affinity for 5HT-2C (5HT-2C): high affinity
affinity for 5HT-3 (5HT-3): high affinity
affinity for 5HT-6 (5HT-6): high affinity
affinity for 5HT-7 (5HT-7): high affinity

COc1cc(CC(C)N)c(OC)cc1Br (stereo not shown) [DOB, 1-(2,5-dimethoxy-4-bromophenyl)-2-aminopropane]
ED50 [1, 6]: 0.36 mg/kg
activity at 5HT-2A receptors (5HT-2A receptors): selectively activate 5HT-2A and 5HT-2C receptors with higher affinity than other 5HT receptors
activity at 5HT-2C receptors (5HT2C receptors): selectively activate 5HT-2A and 5HT-2C receptors with higher affinity than other 5HT receptors

CN1CC[C@@H]2CN3CCc4cccc(c43)[C@@H]2C1.O=C(O)/C=C/C(=O)O [SDZ SER-082]
effect on MK-801 neurotoxicity ([1]; selective 5HT-2C antagonist, n=22): did not affect MK-801 neurotoxicity, either positively or negatively
activity at 5HT-2C receptors (5HT2C receptors): selective 5HT-2C antagonist

COc1cc(CC(C)N)c(OC)cc1C (stereo not shown) [DOM, 1-(2,5-dimethoxy-4-methylphenyl)-2-aminopropane]
ED50 [1, 6]: 0.81 mg/kg
activity at 5HT-2A receptors (5HT-2A receptors): selectively activate 5HT-2A and 5HT-2C receptors with higher affinity than other 5HT receptors
activity at 5HT-2C receptors (5HT2C receptors): selectively activate 5HT-2A and 5HT-2C receptors with higher affinity than other 5HT receptors

c1ccc(C2(N3CCCCC3)CCCCC2)cc1 [Phencyclidine]
pathomorphological changes in brain (cerebrocortical neurons; [7]): produce pathomorphological changes in various corticolimbic regions of the adult rat brain
psychotomimetic reactions / psychosis in humans (humans): can induce a psychosis which is clinically indistinguishable from schizophrenia

CCN1CCCC1CNC(=O)c1cc(S(N)(=O)=O)ccc1OC (stereo not shown) [Sulpiride]
ED50 [2]: > 200 mg/kg
activity in protecting against NR/hypo-induced vacuoles (words) [2]: Inactive
activity in protecting against NR/hypo-induced vacuoles (words) ([2]; listed as sulpiride): inactive
